Like-named read-outs stand apart in the source and are kept apart here.
What was measured:
[1] = cited from earlier work
[2] = tested on: methacholine induced bronchoconstriction; assay: Methacholine induced bronchoconstriction after pulmonary (i.t.) dry powder delivery; type: in vivo, guinea pig
Source text: Each bar represents the mean value and the vertical lines show s.e. mean.
(§1) Each point represents the mean value and the vertical bars show s.e. mean.

[3] = cited from earlier work; remark: listed apart in the source
[4] = tested on: mean arterial blood pressure and heart rate; assay: Mean arterial blood pressure and heart rate after pulmonary delivery; type: in vivo, guinea pig
Source text: as §1

[5] = Pharmacokinetic profile following dry powder insufflation; type: in vivo, guinea pig; settings: anaesthetized guinea pigs, dry powder insufflation of oxybutynin
[6] = tested on: receptors in the salivary glands; settings: cited from earlier work
[7] = in vivo; cited from earlier work

For `CCN(CC)CC#CCOC(=O)C(O)(c1ccccc1)C1CCCCC1` (racemic) [oxybutynin, 4-diethylaminobut-2-butynyl phenylcyclohexyl-glycolate], the Oral half life ([1]; oral) is listed as 2.5 h, the “Bronchoprotective effect in guinea pig model of bronchoconstriction” value [2] is listed as “significantly bronchoprotective effect from 0.25 to 24 hours” and the pKa [3] is listed as 8.24. The “Effect on arterial pressure and heart rate” value ([4]; guinea pig model of bronchoconstriction) was “without a prolonged significant effect on arterial pressure and heart rate” and the “Influence on cardiovascular conditions, compared with Tiotropium” value ([4]; oxybutynin xinafoate, pulmonary, first 6 hours, anaesthetized guinea pigs) was “did not have as significant an influence on cardiovascular conditions”.
In the case of `CCNCC#CCOC(=O)C(O)(c1ccccc1)C1CCCCC1` (centres unmarked) [DEO, N-desethyloxybutynin], the “Levels of DEO” value ([1]; oral therapy) is given as 10 to 40 ng/mL, the “DEO circulating concentration relative to parent compound” value ([1]; oxybutynin ER, oral) is given as “approximately 4 times” and the “DEO circulating concentration relative to parent compound” value ([1]; oxybutynin IR, oral) is given as “approximately 10 times”. For the same molecule, the “Levels of DEO” value ([1]; transdermal therapy) was about 3 ng/mL, the “Systemic levels of DEO resulting from pulmonary delivery” value [5] was “below the LOQ of the detection method” and the “Affinity and binding duration at receptors in the salivary glands, compared with oxybutynin” value [6] was “greater affinity and binding duration”.
In the case of `CCC(=O)O[C@]1(C(=O)SCF)[C@H](C)C[C@H]2[C@@H]3C[C@H](F)C4=CC(=O)C=C[C@]4(C)[C@@]3(F)[C@@H](O)C[C@@]21C` [fluticasone propionate], the “Mean absorption time in the lungs” value [7] is listed as 5 to 7 h.
In the case of `CC1(C)O[C@@H]2C[C@H]3[C@@H]4CCC5=CC(=O)C=C[C@]5(C)[C@@]4(F)[C@@H](O)C[C@]3(C)[C@]2(C(=O)CO)O1` [triamcinolone acetonide], the “Mean absorption time in the lungs” value [7] is given as 2.9 h.
For `O=C(O)c1ccc2ccccc2c1O` [xinafoic acid], the pKa [3] is given as 2.7.

Reference: US9119777B2 (MICRODOSE THERAPEUTX, INC., priority 2008, dated 2015)
